Test results reported in US10577373B2, “TYK2 inhibitors and uses thereof” (Nimbus Lakshmi, Inc., priority 2017, dated 2020).

Columns and labels:
[1] = system: IL-12 induced STAT4 phophorylation mediated by Tyk2/JAK2 (heterodimeric complex); test: IL-12 Induced pSTAT4 in Human PBMC; type: cell-based; settings: 1.7 ng/mL IL-12
Excerpt: The IL-12 Induced pSTAT4 assay evaluates the inhibition of IL-12 induced STAT4 phophorylation mediated by Tyk2/JAK2 (heterodimeric complex).

[2] = system: GM-CSF induced STAT5 phosphorylation mediated by the JAK2/JAK2 homdimeric complex; test: GM-CSF Induced pSTAT5 in Human PBMC; settings: Homo sapiens, PBMC, 20 min, read-out: PBMC_GMCSF_pSTAT5 IC50, human PBMC; GM-CSF 5 ng/mL for 20 minutes; pSTAT5
Excerpt: Human PBMC are isolated from buffy coat and are stored frozen for assays as needed.

| IC50 [1] [nM] | IC50 [2] [nM] | SMILES |
| --- | --- | --- |
| < 100 | > 50000 | CNc1cc(Nc2cccnc2OC2CC2)nc2c(C(=O)NC3CC3)cnn12 [I-215, 5-((2-cyclopropoxypyridin-3-yl)amino)-N-cyclopropyl-7-(methylamino) pyrazolo[1,5-a]pyrimidine-3-carboxamide] |
| < 100 | > 12500 | CNc1cc(Nc2cccnc2OCCOC)nc2c(C(=O)NC3CCC3)cnn12 [I-219] |
| < 100 | > 12500 | CNc1cc(Nc2cccnc2OCCOC)nc2c(C(=O)N[C@H]3C[C@H]3F)cnn12 [I-220] |
| < 100 | > 50000 | CNc1cc(Nc2cc(C)cn(-c3cnn(C)c3)c2=O)nc2c(C(=O)NC3CC3)cnn12 [I-233] |
| < 100 | > 2500 | CNc1cc(Nc2cc(C)cn(-c3cnn(C)c3)c2=O)nc2c(C(=O)NC3CCC3)cnn12 [I-234] |
| < 100 | > 50000 | [2H]C([2H])([2H])Oc1ncc(C)cc1Nc1cc(NC)n2ncc(C(=O)NC3CC3)c2n1 [I-258] |
| < 100 | > 12500 | [2H]C([2H])([2H])Oc1ncc(C)cc1Nc1cc(NC)n2ncc(C(=O)N[C@H]3C[C@H]3F)c2n1 [I-259] |
| < 100 | > 2500 | CNc1cc(Nc2cccn(-c3ncc(C)s3)c2=O)nc2c(C(=O)NC3CC3)cnn12 [I-261, N-cyclopropyl-7-(methylamino)-5-((1-(5-methylthiazol-2-yl)-2-oxo-1,2-dihydropyridin-3-yl)amino)pyrazolo[1,5-a]pyrimidine-3-carboxamide] |
| < 100 | > 50000 | CNc1cc(Nc2cccn(CCOC)c2=O)nc2c(C(=O)NC3CCC3)cnn12 [I-269] |
| < 100 | > 12500 | CNc1cc(Nc2cc(F)cnc2OC2CC2)nc2c(C(=O)NC3CC3)cnn12 [I-274] |
| < 100 | > 50000 | CNc1cc(Nc2cc(F)cnc2OC2CC2)nc2c(C(=O)N[C@H]3C[C@H]3F)cnn12 [I-275] |
| < 100 | > 50000 | CNc1cc(Nc2cc(F)cnc2OC2CC2)nc2c(C(=O)NC3CCC3)cnn12 [I-276] |
| 100 to 500 | > 50000 | CNc1cc(Nc2cc(C)cnc2OC2CC2)nc2c(C(=O)NC3CC3)cnn12 [I-277] |
| 100 to 500 | > 2500 | CNc1cc(Nc2cc(C)cnc2OCCOC)nc2c(C(=O)NC3CC3)cnn12 [I-281] |
| 100 to 500 | > 2500 | CNc1cc(Nc2cc(C)cnc2OCCOC)nc2c(C(=O)NC3CCC3)cnn12 [I-282] |
| < 100 | > 12500 | [2H]C([2H])([2H])Oc1ncc(F)cc1Nc1cc(NC)n2ncc(C(=O)NC3CC3)c2n1 [I-284] |
| < 100 | > 50000 | CNc1cc(Nc2cc(F)cnc2OCCOC)nc2c(C(=O)N[C@H]3C[C@H]3F)cnn12 [I-285] |
| < 100 | > 2500 | [2H]C([2H])([2H])Oc1ncc(F)cc1Nc1cc(NC)n2ncc(C(=O)NC3CCC3)c2n1 [I-288] |
| < 100 | > 2500 | CNc1cc(Nc2cc(F)cnc2OCCOC)nc2c(C(=O)NC3CCC3)cnn12 [I-290] |
| < 100 | > 50000 | CNc1cc(Nc2cccn(-c3cncc(C)c3)c2=O)nc2c(C(=O)NC3CCC3)cnn12 [I-303] |

The next lines start with the compound.

| SMILES | IC50 [1] [nM] | IC50 [2] [nM] |
| --- | --- | --- |
| CNc1cc(Nc2cccnc2OC2CC2)nc2c(C(=O)NC3CCC3)cnn12 [I-216] | < 100 | > 12500 |
| CNc1cc(Nc2cccnc2OC2CC2)nc2c(C(=O)N[C@H]3C[C@H]3F)cnn12 [I-217] | < 100 | > 50000 |
| CNc1cc(-c2cn(C(C)C)c3ncccc23)nc2c(C(N)=O)cnn12 [I-222, 5-(1-isopropyl-1H-pyrrolo[2,3-b]pyridin-3-yl)-7-(methylamino)pyrazolo[1,5-a]pyrimidine-3-carboxamide] | < 100 | > 2500 |
| CNc1cc(-c2cn(C(C)C)c3ncccc23)nc2c(C(=O)NC3CC3)cnn12 [I-223] | < 100 | > 12500 |
| CNc1cc(-c2cn(C(C)C)c3ncccc23)nc2c(C(=O)NC3CCC3)cnn12 [I-224] | < 100 | > 50000 |
| CNc1cc(Nc2cc(C)cn(-c3cnn(C)c3)c2=O)nc2c(C(=O)N[C@H]3C[C@H]3F)cnn12 [I-235] | < 100 | > 2500 |
| CNc1cc(Nc2cccc(N3CCOC3=O)n2)nc2c(C(=O)N[C@H]3C[C@H]3F)cnn12 [I-236] | < 100 | > 2500 |
| CNc1cc(Nc2cccn(-c3ccc(F)cn3)c2=O)nc2c(C(=O)NC3CCC3)cnn12 [I-238] | < 100 | > 50000 |
| CNc1cc(Nc2cccn(-c3ccc(C4CC4)nn3)c2=O)nc2c(C(=O)NC3CCC3)cnn12 [I-240] | < 100 | > 2500 |
| CNc1cc(Nc2cccn(-c3nccs3)c2=O)nc2c(C(=O)N[C@H]3C[C@H]3F)cnn12 [I-243] | < 100 | > 2500 |
| CNc1cc(Nc2cccc(N3CCCC3=O)n2)nc2c(C(=O)N[C@H]3C[C@H]3F)cnn12 [I-244] | < 100 | > 12500 |
| CNc1cc(Nc2cccn(-c3ccc(F)cc3)c2=O)nc2c(C(=O)NC3CCC3)cnn12 [I-246] | < 100 | > 2500 |
| CNc1cc(Nc2cc(C)cn(-c3ccn(C)n3)c2=O)nc2c(C(=O)N[C@H]3C[C@H]3F)cnn12 [I-250] | < 100 | > 12500 |
| CNc1cc(-c2cn(C(C)C)c3ncc(C)cc23)nc2c(C(N)=O)cnn12 [I-255] | < 100 | > 50000 |
| CNc1cc(Nc2cccn(-c3ncc(C)s3)c2=O)nc2c(C(=O)N[C@H]3C[C@H]3F)cnn12 [I-262] | < 100 | > 2500 |
| CNc1cc(Nc2cccn(-c3ncc(C)s3)c2=O)nc2c(C(=O)NC3CCC3)cnn12 [I-263] | < 100 | > 2500 |
| CNc1cc(Nc2cccn(-c3ccc(OC)cn3)c2=O)nc2c(C(=O)N[C@H]3C[C@H]3F)cnn12 [I-265] | < 100 | > 12500 |
| CNc1cc(Nc2cccn(-c3ccc(OC)cn3)c2=O)nc2c(C(=O)NC3CCC3)cnn12 [I-266] | < 100 | > 12500 |
| CNc1cc(-c2cn(C(C)C)c3ncc(Cl)cc23)nc2c(C(N)=O)cnn12 [I-272, 5-(5-chloro-1-isopropyl-1H-pyrrolo[2,3-b]pyridin-3-yl)-7-(methylamino) pyrazolo[1,5-a]pyrimidine-3-carboxamide] | < 100 | > 12500 |
| CNc1cc(Nc2cc(F)cnc2OC)nc2c(C(=O)NCC(C)(C)CO)cnn12 [I-283] | < 100 | > 50000 |
| CNc1cc(Nc2cccn(-c3nc(C)c(C)s3)c2=O)nc2c(C(=O)N[C@H]3C[C@H]3F)cnn12 [I-292] | < 100 | > 2500 |
| CNc1cc(Nc2cccn(-c3ccn(C)n3)c2=O)nc2c(C(=O)NC3CC3)cnn12 [I-294] | < 100 | > 12500 |
| CNc1cc(Nc2cccn(-c3cnn(C)c3)c2=O)nc2c(C(=O)NC3CC3)cnn12 [I-295] | < 100 | > 50000 |
| CNc1cc(Nc2cccn(-c3cnn(C)c3)c2=O)nc2c(C(=O)N[C@H]3C[C@H]3F)cnn12 [I-296] | < 100 | > 50000 |
| CNc1cc(Nc2cccn(C3CCCCC3)c2=O)nc2c(C(=O)N[C@H]3C[C@H]3F)cnn12 [I-305] | < 100 | > 12500 |
| CNc1cc(Nc2cc(Cl)cn(-c3ccn(C)n3)c2=O)nc2c(C(=O)N[C@H]3C[C@H]3F)cnn12 [I-309] | < 100 | > 12500 |
